molecular target: TNF-α (Homo sapiens, UniProt P01375); assay: TNF-α Induced HEK Blue Cellular Assay; type: cell-based; conditions: HEK Blue TNFα reporter cells, TNF-α 100 pg/ml, 24 hrs at 37° C., secreted alkaline phosphatase (QUANTI-Blue, 620 nm)
Description: TNF-α Induced HEK Bluet Cellular Assay
Test articles were diluted in DMSO and serially diluted into 384 well assay plate (Corning 3765), at final concentrations ranging from […] to 0.5 nM. HEK Blue™ TNFα reporter cells were added at a final density of 10,000 cell per well in assay media [DMEM (Gibco, cat #21063-029), 10% fetal bovine serum (ExcelBio, cat #FND500), 1% Penicillin-Streptomycin (Solarbio, cat #P1400-100]. TNF-α (R&D 210-TA-020/CF) was then added to the assay plate at a final concentration of 100 pg/ml. This plate was then incubated for 24 hrs at 37° C. and 5% CO2. Secreted alkaline phosphatase expression was then measured using QUANTI-Blue™ (Invivogen), according to manufacturer instructions and read on an Envision microplate reader at 620 nm.
Inhibition data for test compound over a range of concentration was plotted as percentage inhibition of the test compound (100%=maximum inhibition). IC50 values were determined after correcting for background [(sample read-mean of low control)/(mean of high control-mean of low control)] where by the low control is DMSO without stimulation and high control is DMSO with stimulation. The IC50 is defined as the concentration of test compound which produces 50% inhibition and was quantified using the 4 parameter logistic equation to fit the data.

TNF-α, sequence (P01375 77-233 limits assumed): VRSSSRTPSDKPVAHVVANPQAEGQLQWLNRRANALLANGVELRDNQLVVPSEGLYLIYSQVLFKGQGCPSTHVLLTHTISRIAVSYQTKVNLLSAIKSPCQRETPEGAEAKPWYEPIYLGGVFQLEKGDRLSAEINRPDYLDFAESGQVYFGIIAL

`Cc1nc2cc(F)c(-c3ccc(P(C)(C)=O)nc3)nc2c(N[C@H](C)c2cc(C3CC3)ccc2F)c1Cl` [Example 150, 3-chloro-N-[(1R)-1-(5-cyclopropyl-2-fluorophenyl)ethyl]-6-[6-(dimethylphosphoryl)pyridin-3-yl]-7-fluoro-2-methyl-1,5-naphthyridin-4-amine] and `Cc1nc2cc(F)c(-c3ccc(P(C)(C)=O)nc3)nc2c(N[C@H](C)c2ccccc2F)c1Cl` [Example 18, 3-chloro-6-[6-(dimethylphosphoryl)pyridin-3-yl]-7-fluoro-N-[(1R)-1-(2-fluorophenyl)ethyl]-2-methyl-1,5-naphthyridin-4-amine] cannot be ordered by IC50: at most 1000 nM for the first, at most 100 nM for the second.

`CC[C@H](Nc1c(Cl)c(C)nc2cc(F)c(-c3ccc(P(C)(C)=O)nc3)nc12)c1cc(F)cc(F)c1` [Example 148, 3-chloro-N-[(1S)-1-(3,5-difluorophenyl)propyl]-6-[6-(dimethylphosphoryl)pyridin-3-yl]-7-fluoro-2-methyl-1,5-naphthyridin-4-amine] and `Cc1nc2cc(F)c(-c3ccc(P(C)(C)=O)nc3)nc2c(N[C@H](C)c2cc(F)cc(F)c2)c1Cl` [Example 85, 3-chloro-N-[(1R)-1-(3,5-difluorophenyl)ethyl]-6-[6-(dimethylphosphoryl)pyridin-3-yl]-7-fluoro-2-methyl-1,5-naphthyridin-4-amine] cannot be ordered by IC50: 1000 to 10000 nM for the first, at most 1000 nM for the second.

`Cc1nc2ccc(-c3ccc(P(C)(C)=O)nc3)cc2c(N[C@H](C)c2cc(C#N)ccc2F)c1Cl` [Example 5, 3-[(1R)-1-({3-chloro-6-[6-(dimethylphosphoryl)pyridin-3-yl]-2-methylquinolin-4-yl}amino)ethyl]-4-fluorobenzonitrile] and `Cc1nc2cc(F)c(-c3ccc(P(C)(C)=O)cc3)nc2c(N[C@H](C)c2cc(C#N)ccc2F)c1Cl` [Example 3, 3-[(1R)-1-({3-chloro-6-[4-(dimethylphosphoryl)phenyl]-7-fluoro-2-methyl-1,5-naphthyridin-4-yl}amino)ethyl]-4-fluorobenzonitrile] cannot be ordered by IC50: at most 100 nM for the first, at most 100 nM for the second.

`Cc1nc2cc(F)c(-c3cnc(P(C)(C)=O)nc3)cc2c(N[C@H](C)c2ccccc2F)c1Cl` [Example 11, 3-chloro-6-[2-(dimethylphosphoryl)pyrimidin-5-yl]-7-fluoro-N-[(1R)-1-(2-fluorophenyl)ethyl]-2-methylquinolin-4-amine] and `Cc1nc2cc(F)c(-c3cnc(P(C)(C)=O)nc3)nc2c(N[C@H](C)c2ccccc2F)c1Cl` [Example 7, 3-chloro-6-[2-(dimethylphosphoryl)pyrimidin-5-yl]-7-fluoro-N-[(1R)-1-(2-fluorophenyl)ethyl]-2-methyl-1,5-naphthyridin-4-amine] cannot be ordered by IC50: at most 100 nM for the first, at most 1000 nM for the second.

`Cc1nc2cc(F)c(-c3ccc(P(C)(C)=O)nc3)nc2c(N[C@H](C)c2cc(F)cc(Cl)c2)c1Cl` [Example 130, 3-chloro-N-[(1R)-1-(3-chloro-5-fluorophenyl)ethyl]-6-[6-(dimethylphosphoryl)pyridin-3-yl]-7-fluoro-2-methyl-1,5-naphthyridin-4-amine] and `Cc1nc2cc(F)c(-c3ccc(P(C)(C)=O)nc3)nc2c(N[C@@H](C)c2ccc(F)c(F)c2F)c1Cl` (single isomer, unassigned) [Example 110] cannot be ordered by IC50: at most 1000 nM for the first, at most 100 nM for the second.

`CC[C@@H](Nc1c(Cl)c(C)nc2cc(F)c(-c3ccc(P(C)(C)=O)nc3)nc12)c1ccccn1` [Example 84, 3-chloro-6-[6-(dimethylphosphoryl)pyridin-3-yl]-7-fluoro-2-methyl-N-[(1R)-1-(pyridin-2-yl)propyl]-1,5-naphthyridin-4-amine] and `CC[C@H](Nc1c(Cl)c(C)nc2cc(F)c(-c3ccc(P(C)(C)=O)nc3)nc12)c1ccccn1` [Example 76, 3-chloro-6-[6-(dimethylphosphoryl)pyridin-3-yl]-7-fluoro-2-methyl-N-[(1S)-1-(pyridin-2-yl)propyl]-1,5-naphthyridin-4-amine] cannot be ordered by IC50: at most 1000 nM for the first, at most 100 nM for the second.

`Cc1nc2cc(F)c(-c3cnc(P(C)(C)=O)nc3)nc2c(N[C@H](C)c2cc(C#N)ccc2F)c1Cl` [Example 1, 3-[(1R)-1-({3-chloro-6-[2-(dimethylphosphoryl)pyrimidin-5-yl]-7-fluoro-2-methyl-1,5-naphthyridin-4-yl}amino)ethyl]-4-fluorobenzonitrile] and `CC[C@@H](Nc1c(Cl)c(C)nc2cc(F)c(-c3cnc(P(C)(C)=O)nc3)nc12)c1cc(C#N)ccc1F` [Example 9, 3-[(1R)-1-({3-chloro-6-[2-(dimethylphosphoryl)pyrimidin-5-yl]-7-fluoro-2-methyl-1,5-naphthyridin-4-yl}amino)propyl]-4-fluorobenzonitrile] cannot be ordered by IC50: at most 100 nM for the first, at most 100 nM for the second.

First: CC[P@@](C)(=O)c1ccc(-c2nc3c(N[C@H](C)c4cc(C#N)ccc4F)c(Cl)c(C)nc3cc2F)cn1 [Example 57]
Second: Cc1nc2cc(F)c(-c3ccc(P(=O)(O)O)nc3)nc2c(N[C@H](C)c2cc(C#N)ccc2F)c1Cl [Example 37, diammonium 5-(7-chloro-8-{[(1R)-1-(5-cyano-2-fluorophenyl)ethyl]amino}-3-fluoro-6-methyl-1,5-naphthyridin-2-yl)pyridin-2-ylphosphonate]
The IC50 of the first is lower: at most 100 nM for the first, 10000 to 30000 nM for the second.

First: Cc1nc2cc(F)c(-c3ccc(P(C)(C)=O)nc3)nc2c(N[C@@H](c2ccccc2F)C(F)F)c1Cl (single isomer, unassigned) [Example 25]
Second: Cc1nc2cc(F)c(-c3ccc(P(C)(C)=O)nc3)nc2c(N[C@H](c2ccccc2F)C(F)F)c1Cl [Example 26, (R)-(5-(7-chloro-8-((2,2-difluoro-1-(2-fluorophenyl)ethyl)amino)-3-fluoro-6-methyl-1,5-naphthyridin-2-yl)pyridin-2-yl)dimethylphosphine oxide]
The IC50 of the first is lower: at most 100 nM for the first, 1000 to 10000 nM for the second. The first is the more potent here.

Compared with `Cc1nc2cc(F)c(-c3ccc(P(C)(C)=O)nc3)cc2c(N[C@H](C)c2cc(F)cc(F)c2)c1Cl` [Example 112, 3-chloro-N-[(1R)-1-(3,5-difluorophenyl)ethyl]-6-[6-(dimethylphosphoryl)pyridin-3-yl]-7-fluoro-2-methylquinolin-4-amine], `Cc1nc2cc(F)c(-c3ccc(P(C)(C)=O)nc3)cc2c(N[C@@H](C)c2cncnc2)c1Cl` (single isomer, unassigned) [Example 101] is higher in IC50: at most 1000 nM for the first, 10000 to 30000 nM for the second.

`CC[C@@H](Nc1c(Cl)c(C)nc2cc(F)c(-c3ccc(P(C)(C)=O)c(F)c3)nc12)c1ncccc1F` [Example 4, 3-chloro-6-[4-(dimethylphosphoryl)-3-fluorophenyl]-7-fluoro-N-[(1R)-1-(3-fluoropyridin-2-yl)propyl]-2-methyl-1,5-naphthyridin-4-amine] and `CC[C@@H](Nc1c(Cl)c(C)nc2cc(F)c(-c3ccc(P(C)(C)=O)nc3)nc12)c1cc(C#N)ccc1F` [Example 20, 3-[(1R)-1-({3-chloro-6-[6-(dimethylphosphoryl)pyridin-3-yl]-7-fluoro-2-methyl-1,5-naphthyridin-4-yl}amino)propyl]-4-fluorobenzonitrile] cannot be ordered by IC50: at most 1000 nM for the first, at most 100 nM for the second.

First: Cc1nc2cc(F)c(-c3ccc(P(C)(C)=O)nc3)nc2c(N[C@H](C)c2cccc(C(F)(F)F)c2)c1Cl [Example 93, 3-chloro-6-[6-(dimethylphosphoryl)pyridin-3-yl]-7-fluoro-2-methyl-N-[(1R)-1-[3-(trifluoromethyl)phenyl]ethyl]-1,5-naphthyridin-4-amine]
Second: Cc1nc2cc(F)c(-c3ccc(P(C)(C)=O)nc3)nc2c(N[C@H](c2cccc(F)c2F)C(F)F)c1Cl [Example 146, (R)-(5-(7-chloro-8-((1-(2,3-difluorophenyl)-2,2-difluoroethyl)amino)-3-fluoro-6-methyl-1,5-naphthyridin-2-yl)pyridin-2-yl)dimethylphosphine oxide]
The IC50 of the first is lower: at most 100 nM for the first, 1000 to 10000 nM for the second. The first is the more potent here.

`Cc1nc2cc(F)c(-c3ccc(P(C)(C)=O)nc3)nc2c(N[C@@H](c2cc(C#N)ccc2F)C(F)F)c1Cl` [Example 34, (S)-3-(1-((3-chloro-6-(6-(dimethylphosphoryl)pyridin-3-yl)-7-fluoro-2-methyl-1,5-naphthyridin-4-yl)amino)-2,2-difluoroethyl)-4-fluorobenzonitrile] and `Cc1nc2cc(F)c(-c3ccc(P(C)(C)=O)nc3)nc2c(N[C@H](C)c2cc(C#N)ccc2F)c1C` [Example 119, 3-[(1R)-1-({6-[6-(dimethylphosphoryl)pyridin-3-yl]-7-fluoro-2,3-dimethyl-1,5-naphthyridin-4-yl}amino)ethyl]-4-fluorobenzonitrile] cannot be ordered by IC50: at most 100 nM for the first, at most 1000 nM for the second.

First: Cc1nc2cc(F)c(-c3ccc(OCP(C)(C)=O)nc3)nc2c(N[C@H](C)c2ccccc2F)c1Cl [Example 56, 3-chloro-6-{6-[(dimethylphosphoryl)methoxy]pyridin-3-yl}-7-fluoro-N-[(1R)-1-(2-fluorophenyl)ethyl]-2-methyl-1,5-naphthyridin-4-amine]
Second: Cc1nc2cc(F)c(-c3ccc(P(C)(C)=O)nc3)nc2c(N[C@@H](CO)c2ccccc2F)c1Cl [Example 60, (2R)-2-({3-chloro-6-[6-(dimethylphosphoryl)pyridin-3-yl]-7-fluoro-2-methyl-1,5-naphthyridin-4-yl}amino)-2-(2-fluorophenyl)ethanol]
The IC50 of the first is lower: at most 100 nM for the first, 10000 to 30000 nM for the second.

Work on `Cc1nc2cc(F)c(-c3cnc(P(C)(C)=O)c(F)c3)nc2c(N[C@H](C)c2cccc(F)c2F)c1Cl` [Example 107, 3-chloro-N-[(1R)-1-(2,3-difluorophenyl)ethyl]-6-[6-(dimethylphosphoryl)-5-fluoropyridin-3-yl]-7-fluoro-2-methyl-1,5-naphthyridin-4-amine] yielded an IC50 of at most 1000 nM.
